Data as given in patent US20090099140A1, “20-Alkyl, Gemini Vitamin D3 Compounds and Methods of Use Thereof” (BioXell S.p.A., priority 2005, published 2009).

Tests used:
IFN-γ production = IFN-γ production by allogeneic T cell activation in the mixed leukocyte response (MLR); type: cell-based; conditions: MLR of allogeneic PBMC from 2 different donors, 5 days, IFN-γ by ELISA, 50% inhibition of IFN-γ production
Description: Immature dendritic cells (DC) were prepared as described in Romani, N. et al., J. Immunol. Meth. 196:137. IFN-γ production by allogeneic T cell activation in the mixed leukocyte response (MLR) was determined as described in Penna, G., et al., J. Immunol., 164: 2405-2411 (2000).
Briefly, peripheral blood mononuclear cells (PBMC) were separated from buffy coats by Ficoll gradient and the same number (3×105) of allogeneic PBMC from 2 different donors were co-cultured in 96-well flat-bottom plates. After 5 days, IFN-γ production in the MLR assay was measured by ELISA and the results expressed as amount (nM) of test compound required to induce 50% inhibition of IFN-γ production (IC50) (Table 1).

[1] = Determination of maximum tolerated dose (MTD), highest oral dose without hypercalcemia (serum calcium); type: in vivo; conditions: mouse, in vivo, po; eight week-old female C57BL/6 mice, p.o. daily for four days in miglyol; highest dose without hypercalcemia (serum calcium >10.7 mg/dl) on day five; read-out: MTD (mice)
Description: (§1) The maximum tolerated dose of the vitamin D3 compounds of the invention were determined in eight week-old female C57BL/6 mice (3 mice/group) dosed orally (0.1 ml/mouse) with various concentrations of Vitamin D3 analogs daily for four days. Analogs were formulated in miglyol for a final concentration of 10, 30, 100 and 300 μg/kg when given at 0.1 ml/mouse p.o. daily. Blood for serum calcium assay was drawn by tail bleed on day five, the final day of the study. Serum calcium levels were determined using a colorimetric assay (Sigma Diagnostics, procedure no. 597). The highest dose of analog tolerated without inducing hypercalcemia (serum calcium >10.7 mg/dl) was taken as the maximum tolerated does (MTD).

female C57BL/6 mice = experiment: as above; type: in vivo; conditions: eight week-old female C57BL/6 mice, p.o. daily for four days in miglyol; highest dose without hypercalcemia (serum calcium >10.7 mg/dl) on day five
Description: as §1

| Molecule | IC50 (IFN-γ production; 120 h) [pM] | MTD at 4 days [1] [µg/kg] | IC50 (IFN-γ production) [pM] | MTD (mice) (female C57BL/6 mice) [µg/kg] |
| --- | --- | --- | --- | --- |
| CC(C)(O)CCC[C@@](C)(C/C=C\C(O)(C(F)(F)F)C(F)(F)F)[C@H]1CCC2/C(=C/C=C3/CC(O)C[C@H](O)C3)CCC[C@@]21C (stereo partly drawn) [Compound 11, (20S)-1,25-Dihydroxy-20-[(2Z)-5,5,5-trifluoro-4-hydroxy-4-trifluoromethyl-pent-2-enyl]-19-nor-cholecalciferol] | 253 | 3 | – | – |
| CC(C)(O)CCC[C@@](C)(CC#CC(O)(C(F)(F)F)C(F)(F)F)[C@H]1CCC2/C(=C/C=C3/CC(O)C[C@H](O)C3)CCC[C@@]21C (stereo partly drawn) [Compound 10, (20S)-1,25-Dihydroxy-20-(5,5,5-trifluoro-4-hydroxy-4-trifluoromethyl-pent-2-ynyl)-19-nor-cholecalciferol] | 43.6 | 0.3 | – | – |
| C=C1/C(=C\C=C2/CCC[C@@]3(C)C2CC[C@@H]3[C@](C)(CC#CC(O)(C(F)(F)F)C(F)(F)F)CCCC(C)(C)O)CC(O)C[C@@H]1O (stereo partly drawn) [Compound 4, (20S)-1,25-Dihydroxy-20-(5,5,5-trifluoro-4-hydroxy-4-trifluoromethyl-pent-2-ynyl)cholecalciferol] | 49 | 0.3 | – | – |
| [2H]C([2H])([2H])C(O)(CCCC(C)(C/C=C\C(O)(C(F)(F)F)C(F)(F)F)[C@H]1CCC2/C(=C/C=C3C[C@@H](O)C[C@H](O)C3)CCC[C@@]21C)C([2H])([2H])[2H] (stereo partly drawn) [Compound 17, 1,25-Dihydroxy-20S-20-(4-hydroxy-5,5,5-trideutero-4-trideuteromethyl-pentyl)-23Z-ene-26,27-hexafluoro-19-nor-cholecalciferol] | 2.5 | 0.3 | – | – |
| 1α-Fluoro-25-hydroxy-20S-20-(4-hydroxy-5,5,5-trideutero-4-trideuteromethyl-pentyl)-23E-ene-26,27-hexafluorocholecalciferol [Compound 21] | – | – | 7.1 | 10 |
| C=C1/C(=C\C=C2/CCC[C@@]3(C)C2CC[C@@H]3[C@@](C)(C/C=C\C(O)(C(F)(F)F)C(F)(F)F)CCCC(C)(C)O)C[C@@H](O)C[C@@H]1O (stereo partly drawn) [Compound 8, (20R)-1,25-Dihydroxy-20-[(2Z)-5,5,5-trifluoro-4-hydroxy-4-trifluoromethyl-pent-2-enyl]-cholecalciferol] | 57 | 0.3 | – | – |
| [2H]C([2H])([2H])C(O)(CCCC(C)(C/C=C\C(O)(C(F)(F)F)C(F)(F)F)[C@H]1CCC2/C(=C/C=C3/C[C@@H](O)C[C@H](F)C3=C)CCC[C@@]21C)C([2H])([2H])[2H] (stereo partly drawn) [Compound 18, 1α-Fluoro-25-hydroxy-20S-20-(4-hydroxy-5,5,5-trideutero-4-trideuteromethyl-pentyl)-23Z-ene-26,27-hexafluorocholecalciferol] | 219 | 100 | – | – |
| C=C1/C(=C\C=C2/CCC[C@@]3(C)C2CC[C@@H]3[C@@](C)(C/C=C/C(O)(C(F)(F)F)C(F)(F)F)CCCC(C)(C)O)C[C@@H](O)C[C@@H]1O (stereo partly drawn) [Compound 9, (20R)-1,25-Dihydroxy-20-[(2E)-5,5,5-trifluoro-4-hydroxy-4-trifluoromethyl-pent-2-enyl]-cholecalciferol] | 49 | 0.1 | – | – |
| C=C1/C(=C\C=C2/CCC[C@@]3(C)C2CC[C@@H]3[C@](C)(C/C=C\C(O)(C(F)(F)F)C(F)(F)F)CCCC(C)(C)O)CC(O)C[C@@H]1O (stereo partly drawn) [Compound 5, (20S)-1,25-Dihydroxy-20-(5,5,5-trifluoro-4-hydroxy-4-trifluoromethyl-pent-(2Z)-enyl)cholecalciferol] | 42 | 0.3 | – | – |
| C=C1/C(=C\C=C2/CCC[C@@]3(C)C2CC[C@@H]3[C@](C)(CC#CC(O)(C(F)(F)F)C(F)(F)F)CCCC(C)(C)O)CC(O)C[C@@H]1F (stereo partly drawn) [Compound 13, (20S)-1α-Fluoro-25-hydroxy-20-(5,5,5-trifluoro-4-hydroxy-4-trifluoromethyl-pent-2-ynyl)-cholecalciferol] | 358 | 100 | – | – |
